Results on 39 compounds are retold here after patent publication US9139532B2, “Pyrazolyl guanidine F1F0-atpase inhibitors and therapeutic uses thereof” (Lycera Corporation, priority 2010, dated 2015).

Molecules are shown by their SMILES. Like-named read-outs stand apart in the source and are kept apart here.

For experiment [1], the system named is Ramos cells. Kind of experiment: Cytotoxicity in Ramos cells. The note with it: Homo sapiens, read-out: Ramos Cell EC50. In kind it is cell-based.
Experiment [2] concerns the target T1, F1F0-ATPase (Bos taurus, UniProt P13621).
T1 construct: from tissue
Nature of the experiment: Inhibition of F1F0-ATPase activity in synthesizing ATP. In kind it is biochemical. The note with it: inhibition of ATP synthesis by F1F0-ATPase; read-out: ATP Syn IC50.

The EC50 is the midpoint of the concentration-response curve. What is called IC50 is the concentration needed to halve the response being measured. Turning to `C[C@@H](N/C(=N/C(=O)c1ccc(F)c(F)c1)Nc1cc(C(F)(F)F)[nH]n1)c1ccc(Cl)cc1` [Compound A-46], the EC50 in experiment [1] (cytotoxicity in Ramos cells) was below 10 µM. The IC50 in experiment [2] was below 10 µM.
Regarding `C[C@H](N/C(=N/C(=O)c1ccc(F)c(F)c1)Nc1cc(C(F)(F)F)[nH]n1)c1ccc(Cl)cc1` [Compound A-47], the EC50 in experiment [1] (cytotoxicity in Ramos cells) is below 10 µM. Also, the IC50 in experiment [2] was below 10 µM.
`Cn1nc(C(F)(F)F)cc1N/C(=N\C(=O)c1ccc(C(F)(F)F)cc1)Nc1cc(F)cc(Cl)c1` [Compound A-48]: in experiment [1] (cytotoxicity in Ramos cells), the EC50 was below 10 µM. In addition, in experiment [2], the IC50 is below 10 µM.
As for `CC(C)(C)N/C(=N/C(=O)c1ccc(C(F)(F)F)cc1)Nc1cc(-c2ccc(F)cc2)[nH]n1` [Compound A-50], the EC50 in experiment [1] (cytotoxicity in Ramos cells) is below 10 µM. Further, the IC50 in experiment [2] was below 10 µM.
Take `CC(C)(C)CN/C(=N/C(=O)c1ccc(C(F)(F)F)cc1)Nc1cc(C(F)(F)F)n[nH]1` [Compound A-51]: the EC50 in experiment [1] (cytotoxicity in Ramos cells) was below 10 µM. In addition, the IC50 in experiment [2] is below 10 µM.
As for `O=C(/N=C(/Nc1cc(F)cc(Cl)c1)Nc1cc(C(F)F)[nH]n1)c1ccc(F)c(F)c1` [Compound A-52], in experiment [1] (cytotoxicity in Ramos cells), the EC50 was below 10 µM. In addition, the IC50 in experiment [2] is below 10 µM.
In the case of `CC(C)(C)N/C(=N/C(=O)c1ccc(C(F)(F)F)cc1)Nc1cc(C(F)F)[nH]n1` [Compound A-53], in experiment [1] (cytotoxicity in Ramos cells), the EC50 was below 10 µM. For the same compound, in experiment [2], the IC50 was below 10 µM.
`CC(C)(C)N/C(=N/C(=O)c1ccc(Cl)cc1)Nc1cc(C(F)F)[nH]n1` [Compound A-54]: the EC50 in experiment [1] (cytotoxicity in Ramos cells) is below 10 µM. For the same compound, the half-maximal inhibitory concentration (IC50) in experiment [2] is below 10 µM.
Consider `CC(C)N/C(=N/C(=O)c1ccc(Cl)cc1)Nc1cc(C(F)F)[nH]n1` [Compound A-55], for which the EC50 in experiment [1] (cytotoxicity in Ramos cells) was above 10 µM. The IC50 in experiment [2] was below 10 µM.
In the case of `O=C(/N=C(/NCc1ccc(F)c(Cl)c1)Nc1cc(C(F)F)[nH]n1)c1ccc(Cl)cc1` [Compound A-56], the EC50 in experiment [1] (cytotoxicity in Ramos cells) was above 10 µM. Also, in experiment [2], the IC50 is below 10 µM.
For the compound `O=C(/N=C(/Nc1cc(F)cc(Cl)c1)Nc1cc(C(F)F)[nH]n1)c1ccc(Cl)cc1` [Compound A-57], the EC50 in experiment [1] (cytotoxicity in Ramos cells) is below 10 µM. Further, the IC50 in experiment [2] was below 10 µM.
In the case of `CC(C)N/C(=N/C(=O)c1ccc(C(F)(F)F)cc1)Nc1cc(C(F)F)[nH]n1` [Compound A-58], the EC50 in experiment [1] (cytotoxicity in Ramos cells) was above 10 µM. Besides, the IC50 in experiment [2] was below 10 µM.
Turning to `O=C(/N=C(/NCc1ccc(F)c(Cl)c1)Nc1cc(C(F)F)[nH]n1)c1ccc(C(F)(F)F)cc1` [Compound A-59], in experiment [1] (cytotoxicity in Ramos cells), the EC50 is above 10 µM. The IC50 in experiment [2] is below 10 µM.
On to `O=C(/N=C(/Nc1cc(F)cc(Cl)c1)Nc1cc(C(F)F)[nH]n1)c1ccc(C(F)(F)F)cc1` [Compound A-60], for which, in experiment [1] (cytotoxicity in Ramos cells), the EC50 was below 10 µM. In experiment [2], the IC50 was below 10 µM.
Regarding `O=C(/N=C(/NCc1ccc(F)c(Cl)c1)Nc1cc(C(F)F)[nH]n1)c1ccc(F)c(F)c1` [Compound A-61], in experiment [1] (cytotoxicity in Ramos cells), the half-maximal effective concentration (EC50) is above 10 µM. The IC50 in experiment [2] is below 10 µM.
For `CC(C)(C)N/C(=N/C(=O)c1ccc(F)c(F)c1)Nc1cc(C(F)F)[nH]n1` [Compound A-62] the same measures were below 10 µM and below 10 µM.
On to `CC(C)N/C(=N/C(=O)c1ccc(F)c(F)c1)Nc1cc(C(F)F)[nH]n1` [Compound A-63], for which the EC50 in experiment [1] (cytotoxicity in Ramos cells) is above 10 µM. In addition, in experiment [2], the 50% inhibitory concentration (IC50) is below 10 µM.
For the compound `CC(C)(C)N/C(=N/C(=O)c1ccc(C(F)F)cc1)Nc1cc(C(F)(F)F)[nH]n1` [Compound A-64], the EC50 in experiment [1] (cytotoxicity in Ramos cells) was below 10 µM. Also, the IC50 in experiment [2] was below 10 µM.
For `CC(C)(C)N/C(=N/C(=O)c1ccc(Cl)c(F)c1)Nc1cc(C(F)F)[nH]n1` [Compound A-65], the EC50 in experiment [1] (cytotoxicity in Ramos cells) was below 10 µM. In addition, in experiment [2], the IC50 was below 10 µM.
For `CC(C)(C)CN/C(=N/C(=O)c1ccc(C(F)F)cc1)Nc1cc(C(F)(F)F)[nH]n1` [Compound A-66], in experiment [1] (cytotoxicity in Ramos cells), the EC50 was below 10 µM. In addition, the IC50 in experiment [2] is below 10 µM.
As for `O=C(/N=C(\Nc1cc(C(F)(F)F)[nH]n1)NC1CCCC1)c1ccc(C(F)F)cc1` [Compound A-67], the EC50 in experiment [1] (cytotoxicity in Ramos cells) is below 10 µM. For the same compound, the IC50 in experiment [2] is below 10 µM.
Consider `CC(C)(C)CN/C(=N/C(=O)c1ccc(C(F)(F)F)cc1)Nc1cc(C(F)F)[nH]n1` [Compound A-68], for which, in experiment [1] (cytotoxicity in Ramos cells), the EC50 is below 10 µM. In addition, the IC50 in experiment [2] was below 10 µM.
With `CC(C)(C)CN/C(=N/C(=O)c1ccc(Cl)cc1)Nc1cc(C(F)F)[nH]n1` [Compound A-69], the EC50 in experiment [1] (cytotoxicity in Ramos cells) was below 10 µM. In experiment [2], the IC50 was below 10 µM.
`CC(C)(C)CN/C(=N/C(=O)c1ccc(C#N)cc1)Nc1cc(C(F)(F)F)[nH]n1` [Compound A-70]: the EC50 in experiment [1] (cytotoxicity in Ramos cells) was below 10 µM. Also, the IC50 in experiment [2] was below 10 µM.
Take `CC(C)(C)N/C(=N/C(=O)c1ccc(C#N)cc1)Nc1cc(C(F)(F)F)[nH]n1` [Compound A-71]: the EC50 in experiment [1] (cytotoxicity in Ramos cells) was below 10 µM. Besides, the IC50 in experiment [2] is below 10 µM.
Take `CC(C)(C)CN/C(=N/C(=O)c1cccc(C#N)c1)Nc1cc(C(F)(F)F)[nH]n1` [Compound A-72]: in experiment [1] (cytotoxicity in Ramos cells), the EC50 was below 10 µM. In addition, in experiment [2], the IC50 is below 10 µM.
In the case of `CC(C)(C)N/C(=N/C(=O)c1cccc(C#N)c1)Nc1cc(C(F)(F)F)[nH]n1` [Compound A-73], the EC50 in experiment [1] (cytotoxicity in Ramos cells) was below 10 µM. Besides, the IC50 in experiment [2] was below 10 µM.
With `CCC(C)(C)N/C(=N/C(=O)c1ccc(C(F)F)cc1)Nc1cc(C(F)(F)F)[nH]n1` [Compound A-74], in experiment [1] (cytotoxicity in Ramos cells), the EC50 was below 10 µM. Besides, the IC50 in experiment [2] was below 10 µM.
With `O=C(/N=C(\Nc1cc(C(F)(F)F)[nH]n1)NC1CCCC1)c1cccc(C(F)(F)F)c1` [Compound A-75], the EC50 in experiment [1] (cytotoxicity in Ramos cells) is below 10 µM. Besides, in experiment [2], the IC50 was below 10 µM.
For `CC(C)(C)CN/C(=N/C(=O)c1cccc(C(F)(F)F)c1)Nc1cc(C(F)(F)F)[nH]n1` [Compound A-76], the EC50 in experiment [1] (cytotoxicity in Ramos cells) is below 10 µM. For the same compound, the IC50 in experiment [2] was below 10 µM.
On to `CC(C)(C)N/C(=N/C(=O)c1cccc(C(F)(F)F)c1)Nc1cc(C(F)(F)F)[nH]n1` [Compound A-77], for which the EC50 in experiment [1] (cytotoxicity in Ramos cells) was below 10 µM. Besides, the IC50 in experiment [2] was below 10 µM.
In the case of `CCC(C)(C)N/C(=N/C(=O)c1cccc(C(F)(F)F)c1)Nc1cc(C(F)(F)F)[nH]n1` [Compound A-78], the EC50 in experiment [1] (cytotoxicity in Ramos cells) is below 10 µM. In addition, the IC50 in experiment [2] was below 10 µM.
Regarding `CC(C)(C)N/C(=N/C(=O)c1ccc(C(F)(F)F)nc1)Nc1cc(C(F)(F)F)[nH]n1` [Compound A-79], the half-maximal effective concentration (EC50) in experiment [1] (cytotoxicity in Ramos cells) is below 10 µM. Further, the IC50 in experiment [2] is below 10 µM.
Consider `CC(C)(C)CN/C(=N/C(=O)c1ccc(C(F)(F)F)nc1)Nc1cc(C(F)(F)F)[nH]n1` [Compound A-80], for which the EC50 in experiment [1] (cytotoxicity in Ramos cells) was below 10 µM. For the same compound, in experiment [2], the IC50 is below 10 µM.
In the case of `N#Cc1ccc(C(=O)/N=C(/NCc2ccc(F)cc2Cl)Nc2cc(C(F)(F)F)[nH]n2)cc1` [Compound A-81], the EC50 in experiment [1] (cytotoxicity in Ramos cells) is below 10 µM. For the same compound, the IC50 in experiment [2] is below 10 µM.
With `N#Cc1cccc(C(=O)/N=C(/NCc2ccc(F)cc2Cl)Nc2cc(C(F)(F)F)[nH]n2)c1` [Compound A-82], the EC50 in experiment [1] (Ramos) is below 10 µM. In experiment [2], the IC50 was below 10 µM.
For `O=C(/N=C(/NCc1ccc(F)cc1Cl)Nc1cc(C(F)(F)F)[nH]n1)c1ccc(C(F)F)cc1` [Compound A-83], the EC50 in experiment [1] (cytotoxicity in Ramos cells) was below 10 µM. Also, in experiment [2], the IC50 was below 10 µM.
For the compound `Cc1cc(C(=O)/N=C(\Nc2cc(C(F)(F)F)[nH]n2)NC(C)(C)C)ccn1` [Compound A-84], the EC50 in experiment [1] (cytotoxicity in Ramos cells) is above 10 µM. Further, the IC50 in experiment [2] is below 10 µM.
As for `Cc1cc(C(=O)/N=C(/NCC(C)(C)C)Nc2cc(C(F)(F)F)[nH]n2)ccn1` [Compound A-85], the EC50 in experiment [1] (cytotoxicity in Ramos cells) is above 10 µM. In addition, the IC50 in experiment [2] is below 10 µM.
